pEC50, pIC50: −log10 of the molar value. Like-named read-outs stand apart in the source and are kept apart here.
Tests used:
[1] = Radical scavenging (anti-oxidant) activity, DPPH method; format: physicochemical; details: DPPH in methanol, 30 min, room temperature
Protocol: A selection of the newly synthesised hybrids was tested for their radical scavenging activity (anti-oxidant activity, EC50), based on their interaction with the 2,2-diphenyl-1-picrylhydrazyl (DPPH) free radical, as previously described.
The anti-oxidant capacity or, more precisely, radical scavenging activity based on the electron and proton donation ability, was evaluated by the DPPH method previously described[29]^,[46]. To a 2.5 mL solution of DPPH (0.002%) in methanol, solutions of each compound were added in different volumes to obtain different concentrations in a 3.5 mL final volume. The samples were incubated for 30 min at room temperature. The absorbance was measured at 517 nm against the corresponding blank (methanol). The antioxidant activity was calculated by Eq. (1)^29. (1) %AA = ((ADPPH−Asample)/ADPPH) × 100
The tests were carried out in triplicate. The compound concentration providing 50% of antioxidant activity (EC50) was obtained by plotting the antioxidant activity against the compound concentration.

[2] = target: T1, Aβ1-42 (Homo sapiens, UniProt P05067); assay: biochemical; details: self-mediated Aβ42 aggregation without copper, inhibitor 80 µM, ThT fluorescence; for inhibition at 80 µM: read-out: Aβ aggregation inhibition, Self-Aβ aggr
T1 construct: Amyloid β-peptide (1–42), Aβ1-42, was purchased from GeneCust; purchased GeneCust
T1 sequence (P05067 672-713 limits assumed): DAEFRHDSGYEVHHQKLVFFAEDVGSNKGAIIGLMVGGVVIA
Description: (§1) The Aβ amyloid plaques are one of the main hallmarks of AD and they result from over production and aggregation of β-amyloid peptide, which can accumulate outside the neurons, by self-mediated or Cu^2+-induced process, interfering with the synaptic impairment, neurotransmission and memory. Therefore, anti-AD drugs have been designed aimed to disrupt and disaggregate the Aβ’s fibrils into monomers, obtaining non-toxic forms of β-secretase’s products. To assess the effect of these new hybrids in the inhibition of amyloid peptide aggregation, a selection of the compounds was in vitro assayed, based on the thioflavin T (ThT) method. Indeed ThT is a histochemical dye able to create ionic or hydrophobic interactions with the peptide β–sheets, the predominant secondary structure of the amyloid fibrils in aqueous solutions[36]. This binding interactions can be monitored by fluorimetry since the presence of ThT-fibrils increases the absorbance and the emission of the ThT dye, and induces red shifts on the absorbance (from 385 to 446 nm) and emission peaks (from 445 to 485 nm)[14]. All the measurements were performed after incubation of the self-mediated and Cu^2+-induced Aβ aggregates in the presence/absence of the herein studied compounds. […]. […] This may be rationalised on the basis of their copper chelating capacity, as previously shown by other metal chelating compounds[14]^,[38]. Furthermore, despite some exceptions (e.g. 20 and 24), the increase in linker length and the chloro TAC substitution induce some small negative effects in the inhibition of Aβ self-aggregation.
(§2) For the study of the β-amyloid (Aβ) aggregation, the ThT fluorescence assay was performed using a Varian Cary Eclipse fluorimeter at the following wavelengths: excitation (446 nm) and emission (485 nm). Amyloid β-peptide (1–42), Aβ1-42, was purchased from GeneCust as a lyophilised powder stored at −20 °C. TEM assays were performed with a Hitachi H8100 transmission electron microscope with a LaB6 filament (200 kV, 10000–20000 × magnification) at MicroLab/IST.
(§3) Among all the methods to measure the aggregation of Aβ1-42, the assay based on Thioflavin T (ThT) is the standard procedure based on the fluorescence of this dye[49]^,[50]. This test is performed with Aβ1-42 peptide previously prepared by dissolving it in 1,1,1,3,3,3–hexafluoro-2-propanol (HFIP), an organic solvent useful to solubilise and monomerize the β–sheet protein aggregates and reserve them in the fridge. Films are re-dissolved in an Eppendorf tube with a fresh solution of a mixture of CH3CN/Na2CO3/NaOH, to have a stable stock solution, and afterwards, added to an optimised fibrillation phosphate buffer. The samples were prepared using MeOH (1 mg/mL) as solvent, followed by incubation in a water bath for 24 h at 37 °C with gentle shaking. After incubation, the samples were added to a 96-well plate (BD Falcon) with 180 µL of 5 µM ThT in 50 mM glycine-NaOH (pH 8.5) buffer. Blank samples were prepared for each concentration in a similar way, devoid of peptide. After 5-min incubation with the dye, the ThT fluorescence was measured at 446 nm (excitation) and 485 nm (emission).

[3] = target: T1, Aβ1-42; assay: Inhibition of Cu2+-induced Aβ1-42 aggregation, thioflavin T fluorescence; format: biochemical; details: Aβ42 aggregation with copper (40 µM), inhibitor 80 µM, ThT fluorescence; for inhibition at 80 µM: read-out: Aβ aggregation inhibition, Cu-ind Aβ aggr
Description: as §1, §2
as §3, with “The samples were prepared using MeOH (1 mg/mL) as solvent, followed by incubation in a water bath for 24 h at 37 °C with gentle shaking. After incubation, the samples were added to a 96-well plate (BD Falcon) with 180 µL of 5 µM ThT in 50 mM glycine-NaOH (pH 8.5) buffer. Blank samples were prepared for each concentration in a similar way, devoid of peptide.” left out

[4] = target: T2, AChE (Electrophorus electricus, UniProt O42275); assay: biochemical; parameters: species or system Electrophorus electricus (electric eel)
T2 construct: extracted from Electrophorus electricus (electric eel); purchased Sigma-Aldrich; host or cells: Electrophorus electricus (extracted)
T2 sequence (O42275 24-633): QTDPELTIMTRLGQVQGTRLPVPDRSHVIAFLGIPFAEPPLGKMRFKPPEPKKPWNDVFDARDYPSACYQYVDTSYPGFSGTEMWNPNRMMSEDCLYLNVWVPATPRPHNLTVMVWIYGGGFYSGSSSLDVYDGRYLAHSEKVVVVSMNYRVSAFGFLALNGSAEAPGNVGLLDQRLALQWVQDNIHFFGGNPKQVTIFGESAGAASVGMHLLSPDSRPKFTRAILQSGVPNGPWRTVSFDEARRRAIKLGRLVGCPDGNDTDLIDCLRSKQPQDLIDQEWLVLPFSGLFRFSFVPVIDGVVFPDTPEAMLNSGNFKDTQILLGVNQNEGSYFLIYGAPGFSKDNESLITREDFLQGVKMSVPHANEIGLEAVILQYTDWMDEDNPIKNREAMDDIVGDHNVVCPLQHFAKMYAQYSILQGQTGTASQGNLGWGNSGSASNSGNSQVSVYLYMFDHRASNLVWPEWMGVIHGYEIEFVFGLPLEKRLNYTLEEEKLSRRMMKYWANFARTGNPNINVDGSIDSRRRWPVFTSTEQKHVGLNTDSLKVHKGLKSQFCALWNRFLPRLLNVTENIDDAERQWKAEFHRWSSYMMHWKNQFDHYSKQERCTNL
Protocol: The electronic spectra and the AChE inhibition assays were performed in a 1-cm path length quartz cell with a Perkin Elmer Lambda 35 spectrophotometer equipped with a temperature programmer PTP1 + 1 Peltier System (T = 25.0 ± 0.1 °C). The enzyme AChE 500 U, extracted from Electrophorus electricus (electric eel), was purchased from Sigma-Aldrich.
The enzymatic activity of AChE was determined using an adaptation of the Ellman’s method, as described previously[29]^,[32]. Firstly, a stock solution of AChE was prepared by dissolving enzyme 500 U in 10 mL of tris(hydroxymethyl)aminomethane (TRIS) buffer (50 mM, pH 8). Then, 4–(2-hydroxyethyl)-1-piperazineethanesulfonic acid (HEPES) buffer was used for further dilution of the enzyme solution therefore obtaining the final working solution of AChE. The assay solution consisted of 374 µL of HEPES buffer (50 mM and pH 8.0), a variable volume (10–50 µL) of the compound’s stock solution (1 mg/mL of MeOH), 476 µL of 3 mM bis(3-carboxy-4-nitrophenyl) disulphide (DTNB), 25 µL of AChE stock solution and the necessary amount of methanol to attain the same volume of sample mixture in a 1 mL cuvette. After mixing, samples were left to incubate for 15 min and then 75 µL of 16 mM acetylthiocholine iodide (AChI) solution was added and immediately the reaction was monitored at 405 nm for 5 min. Firstly, enzyme activity was determined by measuring the rate of enzymatic reaction in solution by recording absorbance (with or without enzyme) at 405 nm. To calculate the percent inhibition of AChE, the enzyme activity in the presence of increasing concentrations of the test compound, as well as for a blank reaction (methanol without compounds), were measured at 405 nm.
Where v1is the initial reaction rate in the presence of the inhibitor and v0 is the initial rate of the control reaction. The curves of inhibition were obtained using a plot of percentage of enzymatic inhibition versus inhibitor concentration, and a calibration curve was obtained from which the linear regression parameters were obtained.

[5] = AChE from Electric eel, mean of five independent experiments, read-out: AChE inhibition IC50

SMILES | pEC50 [1] | inhibition at 80 µM [2] [%] | inhibition at 80 µM [3] [%] | pIC50 [4, 5] | Aβ aggregation inhibition, Self-Aβ aggr [2] [%] | Aβ aggregation inhibition, Cu-ind Aβ aggr [3] [%] | pIC50 [4]
O=C(NCCCNc1c2c(nc3ccccc13)CCCC2)c1cc2cccc(O)c2o1 [Compound 21, 7-Hydroxy-N-(3-((1,2,3,4-tetrahydroacridin-9-yl)amino)propyl)benzofuran-2-carboxamide] | 3.32 | 44 | 50.1 | 6.09 | – | – | –
O=C(NCCCNc1c2c(nc3cc(Cl)ccc13)CCCC2)c1cc2cccc(O)c2o1 [Compound 23, N-(3-((6-chloro-1,2,3,4-tetrahydroacridin-9-yl)amino)propyl)-7-hydroxybenzofuran-2-carboxamide] | – | – | – | – | 31.5 | 52.5 | 6.89
O=C(NCCCCNc1c2c(nc3cc(Cl)ccc13)CCCC2)c1cc2cccc(O)c2o1 [Compound 24, N-(4-((6-chloro-1,2,3,4-tetrahydroacridin-9-yl)amino)butyl)-7-hydroxybenzofuran-2-carboxamide] | 3.36 | 43.4 | 53.4 | 6.21 | – | – | –
COc1cccc2cc(C(=O)NCCCCNc3c4c(nc5cc(Cl)ccc35)CCCC4)oc12 [Compound 20, N-(4-((6-chloro-1,2,3,4-tetrahydroacridin-9-yl)amino)butyl)-7-methoxybenzofuran-2-carboxamide] | < 3.00 | 64.4 | – | 6.17 | – | – | –
COc1cccc2cc(C(=O)NCCCNc3c4c(nc5cc(Cl)ccc35)CCCC4)oc12 [Compound 19, N-(3-((6-chloro-1,2,3,4-tetrahydroacridin-9-yl)amino)propyl)-7-methoxybenzofuran-2-carboxamide] | – | 57.8 | – | 6.89 | – | – | –
